Holding throughout (assay): G' assay (10 uM PL peptide), results of TABLE 7 and TABLE 12
Format in all cases: binding

Experiment [1] has as its target T1, PDZ protein (GST-PDZ fusion) (Homo sapiens, UniProt O14907).
T1 construct: made in house; host or cells: E. coli (DH5alpha, BL21 or JM109)
T1 sequence (O14907 1-124): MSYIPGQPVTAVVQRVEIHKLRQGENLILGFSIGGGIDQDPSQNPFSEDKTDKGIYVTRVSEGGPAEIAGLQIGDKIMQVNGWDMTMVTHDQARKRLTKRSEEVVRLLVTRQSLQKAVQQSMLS
Particulars: PDZ TIP1, PDZ Domain 1. The procedure, abridged: (§1)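 Same steps as the G-zero format, apart from a peptide concentration of 10 uM in place of 20 uM in step 2. Amino-terminally biotinylated PL peptides bind GST-PDZ fusions, and retained peptide is quantified by 450 nm absorbance.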

The target in experiment [2] is T2, PDZ protein (GST-PDZ fusion) (Homo sapiens, UniProt Q86UL8).
T2 construct: made in house; host or cells: E. coli (DH5alpha, BL21 or JM109)
The method in brief: as §1

Experiment [3] has as its target T3, PDZ protein (GST-PDZ fusion) (Homo sapiens, UniProt Q12959).
T3 construct: made in house; host or cells: E. coli (DH5alpha, BL21 or JM109)
The method in brief:
as §1

For experiment [4], the target named is T4, PDZ protein (GST-PDZ fusion) (Homo sapiens, UniProt P78352).
T4 construct: made in house; host or cells: E. coli (DH5alpha, BL21 or JM109)
The method in brief: as §1

In experiment [5] the target is T5, PDZ protein (GST-PDZ fusion) (Homo sapiens, UniProt O15018).
T5 construct: made in house; host or cells: E. coli (DH5alpha, BL21 or JM109)
As to conditions: PDZ AIPC, PDZ Domain 1. The method in brief:
as §1

Experiment [6] addresses T6, PDZ protein (GST-PDZ fusion) (Homo sapiens, UniProt Q8NI35).
T6 construct: made in house; host or cells: E. coli (DH5alpha, BL21 or JM109)
Particulars: PDZ INADL. The method in brief:
as §1

Experiment [7] has as its target T7, PDZ protein (GST-PDZ fusion) (Homo sapiens, UniProt Q13796).
T7 construct: made in house; host or cells: E. coli (DH5alpha, BL21 or JM109)
Particulars: PDZ hAPXL, PDZ Domain 1. The method in brief: as §1

Experiment [8] has as its target T8, PDZ protein (GST-PDZ fusion) (Homo sapiens, UniProt Q14160).
T8 construct: made in house; host or cells: E. coli (DH5alpha, BL21 or JM109)
The procedure, abridged:
as §1

[9] abbreviates: PDZ Atrophin-1 Inter. Prot., PDZ Domain 5.

Ends that are not written are not given here. Peptide text beside a SMILES is read from it. * marks the point of attachment. Biotin = O=C1N[C@H]2[C@H](CS[C@H]2CCCCC(=O)*)N1

Here are results for 15 compounds from US20050282743A1, “Molecular interactions in cells” (Arbor Vita Corporation, priority 2001, published 2005).

T3 sequence (Q12959 whole entry, the tested form may be a part): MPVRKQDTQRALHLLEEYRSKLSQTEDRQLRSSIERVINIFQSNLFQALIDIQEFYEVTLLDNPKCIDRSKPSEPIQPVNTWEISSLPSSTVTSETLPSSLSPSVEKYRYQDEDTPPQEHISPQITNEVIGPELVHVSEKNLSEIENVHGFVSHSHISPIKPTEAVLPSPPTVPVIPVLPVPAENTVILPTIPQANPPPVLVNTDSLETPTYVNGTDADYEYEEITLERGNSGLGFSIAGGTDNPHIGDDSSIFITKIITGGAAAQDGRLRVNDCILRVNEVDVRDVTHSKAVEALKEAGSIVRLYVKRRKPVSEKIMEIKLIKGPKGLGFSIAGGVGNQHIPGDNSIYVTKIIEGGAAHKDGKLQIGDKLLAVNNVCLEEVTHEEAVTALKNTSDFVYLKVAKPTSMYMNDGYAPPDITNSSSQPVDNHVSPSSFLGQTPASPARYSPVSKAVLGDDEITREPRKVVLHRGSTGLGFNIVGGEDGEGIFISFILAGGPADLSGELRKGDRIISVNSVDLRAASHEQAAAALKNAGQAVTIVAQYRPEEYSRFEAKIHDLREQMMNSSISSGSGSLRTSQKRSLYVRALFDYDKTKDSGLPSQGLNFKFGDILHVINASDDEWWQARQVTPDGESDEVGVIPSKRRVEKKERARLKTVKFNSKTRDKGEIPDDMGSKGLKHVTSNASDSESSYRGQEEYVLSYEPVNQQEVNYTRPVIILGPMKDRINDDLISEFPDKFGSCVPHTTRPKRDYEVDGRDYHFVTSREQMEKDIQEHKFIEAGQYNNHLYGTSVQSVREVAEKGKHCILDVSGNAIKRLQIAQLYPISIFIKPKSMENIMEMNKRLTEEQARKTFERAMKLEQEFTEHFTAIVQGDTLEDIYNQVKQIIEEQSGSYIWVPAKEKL
T6 sequence (Q8NI35 whole entry, the tested form may be a part): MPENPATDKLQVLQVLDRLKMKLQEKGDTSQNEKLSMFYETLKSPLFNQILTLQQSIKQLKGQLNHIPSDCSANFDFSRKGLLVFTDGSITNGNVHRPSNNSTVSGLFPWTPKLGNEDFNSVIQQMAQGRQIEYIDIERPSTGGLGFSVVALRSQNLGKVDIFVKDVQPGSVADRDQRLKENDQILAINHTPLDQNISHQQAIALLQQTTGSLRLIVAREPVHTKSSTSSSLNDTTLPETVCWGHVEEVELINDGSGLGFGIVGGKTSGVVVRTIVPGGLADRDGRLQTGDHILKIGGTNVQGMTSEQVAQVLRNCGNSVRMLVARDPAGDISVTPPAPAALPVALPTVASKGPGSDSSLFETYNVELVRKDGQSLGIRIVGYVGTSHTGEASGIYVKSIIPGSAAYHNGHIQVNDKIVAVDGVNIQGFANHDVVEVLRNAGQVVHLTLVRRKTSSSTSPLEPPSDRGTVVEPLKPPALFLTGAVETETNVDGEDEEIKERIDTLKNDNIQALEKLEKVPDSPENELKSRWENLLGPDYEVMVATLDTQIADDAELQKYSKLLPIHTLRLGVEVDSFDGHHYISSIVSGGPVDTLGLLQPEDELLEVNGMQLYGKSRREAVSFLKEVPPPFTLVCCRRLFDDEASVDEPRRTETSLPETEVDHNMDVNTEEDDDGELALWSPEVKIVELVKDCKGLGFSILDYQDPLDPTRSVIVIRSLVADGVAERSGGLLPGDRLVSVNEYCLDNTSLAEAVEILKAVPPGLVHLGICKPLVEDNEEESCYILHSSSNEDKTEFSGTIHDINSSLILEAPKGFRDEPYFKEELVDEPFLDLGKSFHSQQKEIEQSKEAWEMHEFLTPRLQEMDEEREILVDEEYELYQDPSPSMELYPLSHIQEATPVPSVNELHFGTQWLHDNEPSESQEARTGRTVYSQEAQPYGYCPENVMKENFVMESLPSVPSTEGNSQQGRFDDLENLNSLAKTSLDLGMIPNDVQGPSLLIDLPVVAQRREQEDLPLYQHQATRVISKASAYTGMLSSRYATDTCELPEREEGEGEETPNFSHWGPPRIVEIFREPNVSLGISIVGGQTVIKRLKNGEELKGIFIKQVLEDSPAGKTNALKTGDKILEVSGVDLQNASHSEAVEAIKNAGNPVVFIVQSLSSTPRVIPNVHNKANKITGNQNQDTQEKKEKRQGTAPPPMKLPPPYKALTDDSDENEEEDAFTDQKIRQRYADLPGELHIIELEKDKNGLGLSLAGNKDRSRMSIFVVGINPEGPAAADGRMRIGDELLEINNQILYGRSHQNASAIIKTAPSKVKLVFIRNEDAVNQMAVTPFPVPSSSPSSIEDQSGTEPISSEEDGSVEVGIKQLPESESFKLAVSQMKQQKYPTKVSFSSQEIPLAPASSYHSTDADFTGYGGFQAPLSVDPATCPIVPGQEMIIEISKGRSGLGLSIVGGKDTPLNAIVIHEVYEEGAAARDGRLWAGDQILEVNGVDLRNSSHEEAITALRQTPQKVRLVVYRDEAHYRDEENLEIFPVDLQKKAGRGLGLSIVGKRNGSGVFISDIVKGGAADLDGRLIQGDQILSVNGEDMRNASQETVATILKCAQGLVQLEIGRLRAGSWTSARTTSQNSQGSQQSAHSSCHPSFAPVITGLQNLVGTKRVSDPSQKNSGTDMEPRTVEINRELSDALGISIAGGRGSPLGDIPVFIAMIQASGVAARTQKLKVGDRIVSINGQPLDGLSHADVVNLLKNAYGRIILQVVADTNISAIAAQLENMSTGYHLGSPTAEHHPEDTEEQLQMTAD
T4 sequence (P78352 whole entry, the tested form may be a part): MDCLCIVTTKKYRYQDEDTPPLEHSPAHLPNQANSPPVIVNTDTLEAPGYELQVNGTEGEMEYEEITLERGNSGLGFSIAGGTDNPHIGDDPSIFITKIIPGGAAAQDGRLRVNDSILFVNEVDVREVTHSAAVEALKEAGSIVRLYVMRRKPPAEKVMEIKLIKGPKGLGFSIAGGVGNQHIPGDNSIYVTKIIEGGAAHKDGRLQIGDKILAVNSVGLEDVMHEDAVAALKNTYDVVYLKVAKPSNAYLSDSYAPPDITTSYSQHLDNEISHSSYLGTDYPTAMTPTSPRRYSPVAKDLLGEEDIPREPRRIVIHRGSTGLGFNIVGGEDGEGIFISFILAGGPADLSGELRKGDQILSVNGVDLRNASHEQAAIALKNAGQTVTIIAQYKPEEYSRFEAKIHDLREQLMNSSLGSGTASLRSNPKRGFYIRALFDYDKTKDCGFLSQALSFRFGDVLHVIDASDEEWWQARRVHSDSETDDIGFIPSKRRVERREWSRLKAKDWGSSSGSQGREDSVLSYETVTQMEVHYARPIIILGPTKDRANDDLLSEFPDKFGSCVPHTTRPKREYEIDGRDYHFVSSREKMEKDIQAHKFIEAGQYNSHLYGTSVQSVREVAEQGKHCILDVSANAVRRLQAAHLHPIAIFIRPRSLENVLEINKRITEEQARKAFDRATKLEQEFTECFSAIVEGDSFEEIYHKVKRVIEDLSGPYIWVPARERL
T2 sequence (Q86UL8 whole entry, the tested form may be a part): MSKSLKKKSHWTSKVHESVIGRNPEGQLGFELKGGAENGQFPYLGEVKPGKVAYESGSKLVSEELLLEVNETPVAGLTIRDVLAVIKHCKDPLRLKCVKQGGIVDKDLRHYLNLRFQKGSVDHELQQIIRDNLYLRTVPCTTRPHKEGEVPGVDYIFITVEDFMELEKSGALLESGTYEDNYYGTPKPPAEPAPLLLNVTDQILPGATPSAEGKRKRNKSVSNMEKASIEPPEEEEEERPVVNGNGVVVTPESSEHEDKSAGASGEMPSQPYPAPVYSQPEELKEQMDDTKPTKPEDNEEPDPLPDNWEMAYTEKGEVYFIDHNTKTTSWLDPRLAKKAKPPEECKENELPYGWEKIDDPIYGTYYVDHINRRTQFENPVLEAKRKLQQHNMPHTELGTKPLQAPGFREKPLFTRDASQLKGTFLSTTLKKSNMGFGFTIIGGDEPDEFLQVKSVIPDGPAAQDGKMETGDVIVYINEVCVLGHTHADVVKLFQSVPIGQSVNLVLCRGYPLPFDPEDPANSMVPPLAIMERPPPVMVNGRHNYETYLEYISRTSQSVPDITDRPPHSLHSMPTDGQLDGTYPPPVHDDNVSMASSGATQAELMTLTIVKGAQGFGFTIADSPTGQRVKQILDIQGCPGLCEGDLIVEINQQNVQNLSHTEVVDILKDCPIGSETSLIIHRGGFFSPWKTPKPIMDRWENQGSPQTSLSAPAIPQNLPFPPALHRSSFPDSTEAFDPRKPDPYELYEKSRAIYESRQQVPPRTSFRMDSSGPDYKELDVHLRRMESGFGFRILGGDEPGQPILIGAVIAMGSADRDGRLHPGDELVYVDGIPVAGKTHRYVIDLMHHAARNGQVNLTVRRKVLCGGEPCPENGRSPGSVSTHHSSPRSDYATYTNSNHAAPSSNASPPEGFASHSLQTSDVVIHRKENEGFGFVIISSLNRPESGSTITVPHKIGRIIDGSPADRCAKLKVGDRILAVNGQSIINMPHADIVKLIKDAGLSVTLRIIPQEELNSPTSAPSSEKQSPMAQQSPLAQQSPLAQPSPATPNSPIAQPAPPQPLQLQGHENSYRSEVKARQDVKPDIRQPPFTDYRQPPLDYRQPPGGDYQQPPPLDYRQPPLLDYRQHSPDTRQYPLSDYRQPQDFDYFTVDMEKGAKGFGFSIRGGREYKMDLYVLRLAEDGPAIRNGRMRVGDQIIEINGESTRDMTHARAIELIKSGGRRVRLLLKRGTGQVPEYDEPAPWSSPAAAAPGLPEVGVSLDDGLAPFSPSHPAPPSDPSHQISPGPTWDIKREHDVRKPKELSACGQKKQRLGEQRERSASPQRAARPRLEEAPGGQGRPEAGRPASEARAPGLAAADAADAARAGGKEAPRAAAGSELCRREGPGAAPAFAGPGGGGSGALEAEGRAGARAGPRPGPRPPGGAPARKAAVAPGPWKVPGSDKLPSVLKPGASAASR

“ARHRVTSYTSSSVNVSSNL (Biotin-ARHRVTSYTSSSVNVSSNL) [IL-8RB]”: the Classification in experiment [1] is reported as 1 (A450 nm 0-1).

In the case of `CC[C@H](C)[C@H](NC(=O)[C@H](Cc1c[nH]cn1)NC(=O)[C@H](C)NC(=O)[C@H](C)NC(=O)[C@H](CO)NC(=O)[C@@H]1CCCN1C(=O)[C@H](CCCNC(=N)N)NC(=O)[C@H](CC(=O)O)NC(=O)[C@H](CCCCN)NC(=O)[C@@H]1CCCN1C(=O)[C@H](CC(=O)O)NC(=O)[C@H](CCC(=O)O)NC(=O)CCCC[C@@H]1SC[C@@H]2NC(=O)N[C@@H]21)C(=O)N[C@H](C(=O)N[C@@H](CCC(=O)O)C(=O)N[C@@H](C)C(=O)N[C@@H](CC(C)C)C(=O)N[C@@H](CCC(=O)O)C(=O)N[C@H](C(=O)N[C@@H](CC(=O)O)C(=O)N[C@H](C(=O)O)C(C)C)[C@@H](C)O)C(C)C` [PDZ-binding kinase (PBK)] (Biotin-EDPKDRPSAAHIVEALETDV-OH; C-terminus assumed), the Classification in experiment [2] (setting [9]) is recorded as 1 (A450 nm 0-1); in experiment [3] (PDZ DLG1, PDZ Domain 1, 2), 1 (A450 nm 0-1); in experiment [1], 1 (A450 nm 0-1); in experiment [4] (PDZ PSD95, PDZ Domain 1, 2, 3), 1 (A450 nm 0-1).

Regarding `CC[C@H](C)[C@H](NC(=O)[C@H](CCC(=O)O)NC(=O)[C@H](CO)NC(=O)[C@H](CCC(=O)O)NC(=O)[C@H](CCCNC(=N)N)NC(=O)[C@H](CCCNC(=N)N)NC(=O)[C@H](CC(C)C)NC(=O)[C@@H]1CCCN1C(=O)[C@H](CCCNC(=N)N)NC(=O)[C@@H]1CCCN1C(=O)[C@H](CCC(=O)O)NC(=O)[C@H](CC(C)C)NC(=O)[C@@H]1CCCN1C(=O)[C@@H](NC(=O)[C@H](CO)NC(=O)[C@H](C)NC(=O)[C@H](CCC(N)=O)NC(=O)[C@H](CC(N)=O)NC(=O)[C@H](Cc1c[nH]cn1)NC(=O)[C@H](CC(C)C)NC(=O)CCCC[C@@H]1SC[C@@H]2NC(=O)N[C@@H]21)C(C)C)C(=O)O` [Kir2.1 (inwardly rect. K+ channel)] (Biotin-LHNQASVPLEPRPLRRESEI-OH; C-terminus assumed), the Classification in experiment [2] (PDZ atrophin-1 interacting Protein, PDZ Domain 1) is listed as 1 (A450 nm 0-1); in experiment [3] (PDZ DLG1, PDZ Domain 1, 2) it was 2 (A450 nm 1-2); in experiment [3] (PDZ DLG1, PDZ Domain 2), 1 (A450 nm 0-1); in experiment [4] (PDZ PSD95, PDZ Domain 1, 2, 3), 2 (A450 nm 1-2).

As to `CC[C@H](C)[C@H](NC(=O)[C@H](CCC(=O)O)NC(=O)[C@H](CC(N)=O)NC(=O)[C@H](CCCNC(=N)N)NC(=O)[C@H](Cc1ccccc1)NC(=O)[C@H](CC(N)=O)NC(=O)[C@H](CO)NC(=O)[C@H](CC(N)=O)NC(=O)[C@H](CCC(=O)O)NC(=O)[C@H](CO)NC(=O)[C@H](CC(=O)O)NC(=O)[C@H](CO)NC(=O)[C@@H](NC(=O)[C@@H](NC(=O)[C@H](CC(=O)O)NC(=O)[C@H](CCCCN)NC(=O)CCCC[C@@H]1SC[C@@H]2NC(=O)N[C@@H]21)[C@@H](C)CC)[C@@H](C)O)C(=O)N[C@@H](CCC(N)=O)C(=O)N[C@@H](CO)C(=O)N[C@@H](CC(C)C)C(=O)N[C@H](C(=O)O)C(C)C` [CD95] (Biotin-KDITSDSENSNFRNEIQSLV-OH; C-terminus assumed), the Classification in experiment [5] is 1 (A450 nm 0-1); in experiment [3] (PDZ DLG1, PDZ Domain 2), 1 (A450 nm 0-1).

With `CC[C@H](C)[C@H](NC(=O)[C@H](C)NC(=O)[C@H](CC(C)C)NC(=O)[C@H](Cc1c[nH]c2ccccc12)NC(=O)[C@H](Cc1c[nH]cn1)NC(=O)[C@H](CCC(N)=O)NC(=O)[C@H](CC(C)C)NC(=O)[C@H](CCC(N)=O)NC(=O)[C@H](Cc1ccccc1)NC(=O)[C@H](CCC(N)=O)NC(=O)[C@H](CCCNC(=N)N)NC(=O)[C@@H](NC(=O)[C@H](CC(=O)O)NC(=O)[C@H](CCCNC(=N)N)NC(=O)[C@H](CCC(N)=O)NC(=O)[C@H](C)NC(=O)[C@@H](NC(=O)[C@H](CC(C)C)NC(=O)[C@H](Cc1c[nH]cn1)NC(=O)[C@H](Cc1c[nH]cn1)NC(=O)CCCC[C@@H]1SC[C@@H]2NC(=O)N[C@@H]21)C(C)C)[C@@H](C)CC)C(=O)O` [noradrenaline transporter] (Biotin-HHLVAQRDIRQFQLQHWLAI-OH; C-terminus assumed), the Classification is 2 (A450 nm 1-2) in experiment [5] and 3 (A450 nm 2-3) in experiment [6] (PDZ Domain 3).

On to “A2AC_HUMAN (Modified) (Biotin-DFRPSFKHILFRRARRGFRQ; not fully specified)”, for which the Classification in experiment [7] is 3 (A450 nm 2-3).

Regarding “RNIEEVYVGGKQVVPFSSSV (Biotin-RNIEEVYVGGKQVVPFSSSV) [Nedasin (s-form)]”, the Classification in experiment [3] (PDZ DLG1, PDZ Domain 1, 2) was 3 (A450 nm 2-3); in experiment [1], 5 (A450 nm of 4 more than 2× repeated); in experiment [4] (PDZ PSD95, PDZ Domain 1, 2, 3), 3 (A450 nm 2-3); in experiment [6] (PDZ Domain 8), 1 (A450 nm 0-1).

Regarding `CC[C@H](C)[C@H](NC(=O)[C@H](CCC(N)=O)NC(=O)CCCC[C@@H]1SC[C@@H]2NC(=O)N[C@@H]21)C(=O)N[C@@H](CO)C(=O)N1CCC[C@H]1C(=O)NCC(=O)NCC(=O)N[C@@H](CC(C)C)C(=O)N[C@@H](CCC(=O)O)C(=O)N1CCC[C@H]1C(=O)N1CCC[C@H]1C(=O)N[C@@H](CO)C(=O)N[C@@H](CCC(=O)O)C(=O)N[C@@H](CCCCN)C(=O)N[C@@H](Cc1c[nH]cn1)C(=O)N[C@@H](Cc1ccccc1)C(=O)N[C@@H](CCCNC(=N)N)C(=O)N[C@@H](CCC(=O)O)C(=O)N[C@H](C(=O)N[C@@H](CCC(=O)O)C(=O)N[C@H](C(=O)O)C(C)C)[C@@H](C)O` [Tax], the Classification in experiment [5] was 1 (A450 nm 0-1); in experiment [2] (setting [9]), 3 (A450 nm 2-3); in experiment [2] (PDZ atrophin-1 interacting Protein (Atrophin-1 Inter. Prot.), PDZ Domain 1), 5 (A450 nm of 4 more than 2× repeated); in experiment [2] (PDZ atrophin-1 interacting Protein, PDZ Domain 2), 1 (A450 nm 0-1); in experiment [2] (PDZ atrophin-1 interacting Protein, PDZ Domain 3), 1 (A450 nm 0-1); in experiment [3] (PDZ DLG1, PDZ Domain 1), 5 (A450 nm of 4 more than 2× repeated). For the same compound, the Classification in experiment [3] (PDZ DLG1, PDZ Domain 2) was 5 (A450 nm of 4 more than 2× repeated); in experiment [8] (PDZ KIAA0147, PDZ Domain 1) it was 5 (A450 nm of 4 more than 2× repeated); in experiment [8] (PDZ KIAA0147, PDZ Domain 2), 5 (A450 nm of 4 more than 2× repeated); in experiment [8] (PDZ KIAA0147, PDZ Domain 3), 1 (A450 nm 0-1); in experiment [8] (PDZ KIAA0147, PDZ Domain 4), 1 (A450 nm 0-1); in experiment [4] (PDZ PSD95, PDZ Domain 1), 5 (A450 nm of 4 more than 2× repeated). The Classification in experiment [4] (PDZ PSD95, PDZ Domain 2) was 1 (A450 nm 0-1); in experiment [4] (PDZ PSD95, PDZ Domain 3), 1 (A450 nm 0-1); in experiment [6] (PDZ Domain 3) it was 1 (A450 nm 0-1).

With “SLKPGTVLPPPPYRHRNTVV (Biotin-SLKPGTVLPPPPYRHRNTVV) [ErbB-4 receptor]”, the Classification in experiment [3] (PDZ DLG1, PDZ Domain 1, 2) was 1 (A450 nm 0-1); in experiment [4] (PDZ PSD95, PDZ Domain 1, 2, 3), 1 (A450 nm 0-1).

As to “GPVPGEPAKPKTSAHHATFV (Biotin-GPVPGEPAKPKTSAHHATFV)”, the Classification in experiment [3] (PDZ DLG1, PDZ Domain 1, 2) is reported as 1 (A450 nm 0-1); in experiment [1], 1 (A450 nm 0-1).

With “ISGTPTSTMVHGMTSSSSVV (Biotin-ISGTPTSTMVHGMTSSSSVV) [Clasp-2]”, the Classification in experiment [5] is given as 1 (A450 nm 0-1); in experiment [3] (PDZ DLG1, PDZ Domain 1) it was 1 (A450 nm 0-1); in experiment [3] (PDZ DLG1, PDZ Domain 2), 1 (A450 nm 0-1); in experiment [4] (PDZ PSD95, PDZ Domain 1), 1 (A450 nm 0-1); in experiment [6] (PDZ Domain 8), 1 (A450 nm 0-1).

Consider “ALVLIAFCIIRRRPSAYQAL (Biotin-ALVLIAFCIIRRRPSAYQAL) [CD68]”, for which the Classification in experiment [7] is listed as 2 (A450 nm 1-2).

As for “A2AA_HUMAN (modified) (Biotin-HDFRRAFKKILARGDRKRIV; not fully specified)”, the Classification is on record as 2 (A450 nm 1-2) in experiment [5]; 1 (A450 nm 0-1) in experiment [2] (setting [9]); 1 (A450 nm 0-1) in experiment [2] (PDZ Atrophin-1 Inter. Prot., PDZ Domain 6); 1 (A450 nm 0-1) in experiment [7]; 2 (A450 nm 1-2) in experiment [6] (PDZ Domain 3); 1 (A450 nm 0-1) in experiment [6] (PDZ Domain 4).

“GGGGGSGGGGGSGIESVKI [GLUR2 (glutamate receptor 2-modified)]”: the Classification was 2 (A450 nm 1-2) in experiment [5]; 2 (A450 nm 1-2) in experiment [3] (PDZ DLG1, PDZ Domain 1, 2); 1 (A450 nm 0-1) in experiment [3] (PDZ DLG1, PDZ Domain 2); 1 (A450 nm 0-1) in experiment [8] (PDZ KIAA0147, PDZ Domain 1); 2 (A450 nm 1-2) in experiment [4] (PDZ PSD95, PDZ Domain 1, 2, 3).

With CKR5_HUMAN (ERASSVYTRSTGEQEISVGL), the Classification in experiment [1] is 1 (A450 nm 0-1).
